Results published in PubChem BioAssay AID1745844 (Carcinogenic Potency Database (CPDB), 2022).
The source made the active and inactive calls. How the calls were made is not given here.

Tested on: rodent lifetime carcinogenesis bioassay, tumor incidence TD50
Assay: carcinogenic potency in animals, long-term in vivo studies, CPDB compilation (AID 1745844)

CC1CN(N=O)CC(C)N1C(=O)c1ccccc1 (centres undefined)
carcinogen call (rat, strain Fischer 344, females, in drinking water, site: any site (literature study), lesion: several types, types named in the paper, dosed 50 weeks, study length 125 weeks): positive
TD50 (rat, strain Fischer 344, females, in drinking water, site: forestomach, lesion: basal-cell carcinoma, dosed 50 weeks, study length 125 weeks): 26.4 mg/kg/day
TD50 (rat, strain Fischer 344, females, in drinking water, site: forestomach, lesion: papilloma, dosed 50 weeks, study length 125 weeks): 9.66 mg/kg/day
TD50 (rat, strain Fischer 344, females, in drinking water, site: liver, lesion: one or several types, types not named, dosed 50 weeks, study length 125 weeks): 9.1 mg/kg/day

Cc1ccc([N+](=O)[O-])cc1N
TD50 (mouse, strain B6C3F1, females, in feed, site: all sites + liver, lesion: hemangiosarcoma + hepatocellular carcinoma, dosed 78 weeks, study length 96 weeks): 242 mg/kg/day
TD50 (mouse, strain B6C3F1, females, in feed, site: all sites, lesion: hemangiosarcoma, dosed 78 weeks, study length 96 weeks): 1860 mg/kg/day
TD50 (mouse, strain B6C3F1, females, in feed, site: any site (literature study), lesion: several types, types named in the paper, dosed 78 weeks, study length 96 weeks): 989 mg/kg/day
TD50 (mouse, strain B6C3F1, females, in feed, site: liver, lesion: hepatocellular adenoma + hepatocellular carcinoma + neoplastic nodule, dosed 78 weeks, study length 96 weeks): 288 mg/kg/day
TD50 (mouse, strain B6C3F1, females, in feed, site: liver, lesion: hepatocellular carcinoma, dosed 78 weeks, study length 96 weeks): 288 mg/kg/day
TD50 (mouse, strain B6C3F1, males, in feed, site: all sites + liver, lesion: hemangioma + hemangiosarcoma + hepatocellular carcinoma, dosed 78 weeks, study length 95 weeks): 269 mg/kg/day
TD50 (mouse, strain B6C3F1, males, in feed, site: all sites, lesion: hemangioma + hemangiosarcoma, dosed 78 weeks, study length 95 weeks): 2550 mg/kg/day
TD50 (mouse, strain B6C3F1, males, in feed, site: any site (literature study), lesion: several types, types named in the paper, dosed 78 weeks, study length 95 weeks): 431 mg/kg/day
TD50 (mouse, strain B6C3F1, males, in feed, site: liver, lesion: hepatocellular adenoma + hepatocellular carcinoma + neoplastic nodule, dosed 78 weeks, study length 95 weeks): 266 mg/kg/day
TD50 (mouse, strain B6C3F1, males, in feed, site: liver, lesion: hepatocellular carcinoma, dosed 78 weeks, study length 95 weeks): 266 mg/kg/day
carcinogen call (rat, strain Fischer 344, females, in feed, site: any site (literature study), lesion: several types, types named in the paper, dosed 78 weeks, study length 108 weeks): negative (inactive)
TD50 (rat, strain Fischer 344, females, in feed, site: liver, lesion: hepatocellular adenoma + hepatocellular carcinoma + neoplastic nodule, dosed 78 weeks, study length 108 weeks): 43 mg/kg/day
TD50 (rat, strain Fischer 344, males, in feed, site: any site (literature study), lesion: several types, types named in the paper, dosed 78 weeks, study length 107 weeks): 43.7 mg/kg/day
TD50 (rat, strain Fischer 344, males, in feed, site: liver, lesion: hepatocellular carcinoma, dosed 78 weeks, study length 107 weeks): 27.7 mg/kg/day (inactive)

Nc1cc([N+](=O)[O-])ccc1O
carcinogen call (mouse, strain B6C3F1, females, by gavage, site: any site (literature study), lesion: several types, types named in the paper, dosed 103 weeks, study length 105 weeks): negative (inactive)
TD50 (mouse, strain B6C3F1, females, by gavage, site: liver, lesion: hepatocellular adenoma + hepatocellular carcinoma + neoplastic nodule, dosed 103 weeks, study length 105 weeks): 2160 mg/kg/day
TD50 (mouse, strain B6C3F1, females, by gavage, site: lung, lesion: alveolar/bronchiolar adenoma + alveolar/bronchiolar carcinoma, dosed 103 weeks, study length 105 weeks): 2180 mg/kg/day
TD50 (mouse, strain B6C3F1, males, by gavage, site: abdominal cavity + liver + mesenteric lymph node + pancreas + spleen + subcutaneous tissue, lesion: hemangioma + hemangiosarcoma, dosed 103 weeks, study length 105 weeks): 798 mg/kg/day (inactive)
TD50 (mouse, strain B6C3F1, males, by gavage, site: any site (literature study), lesion: several types, types named in the paper, dosed 103 weeks, study length 105 weeks): 582 mg/kg/day
carcinogen call (rat, strain Fischer 344, females, by gavage, site: any site (literature study), lesion: several types, types named in the paper, dosed 103 weeks, study length 105 weeks): negative (inactive)
TD50 (rat, strain Fischer 344, males, by gavage, site: any site (literature study), lesion: several types, types named in the paper, dosed 103 weeks, study length 105 weeks): 84.1 mg/kg/day
TD50 (rat, strain Fischer 344, males, by gavage, site: kidney cortex, lesion: adenoma, NOS, dosed 103 weeks, study length 105 weeks): 839 mg/kg/day
TD50 (rat, strain Fischer 344, males, by gavage, site: liver, lesion: hepatocellular adenoma + hepatocellular carcinoma + neoplastic nodule, dosed 103 weeks, study length 105 weeks): 1300 mg/kg/day
TD50 (rat, strain Fischer 344, males, by gavage, site: liver, lesion: hepatocellular carcinoma + neoplastic nodule, dosed 103 weeks, study length 105 weeks): 1300 mg/kg/day
TD50 (rat, strain Fischer 344, males, by gavage, site: subcutaneous tissue, lesion: fibroma, dosed 103 weeks, study length 105 weeks): 584 mg/kg/day
TD50 (rat, strain Fischer 344, males, by gavage, site: subcutaneous tissue, lesion: fibrosarcoma + fibroma + neurofibrosarcoma + sarcoma, NOS, dosed 103 weeks, study length 105 weeks): 458 mg/kg/day
TD50 (rat, strain Fischer 344, males, by gavage, site: testis, lesion: interstitial-cell tumor, dosed 103 weeks, study length 105 weeks): 68.2 mg/kg/day

O=C1NC(O)CCN1[C@@H]1O[C@H](CO)[C@@H](O)[C@H]1O (some centres undefined)
TD50 (rat, strain Fischer 344, males, i.p., site: any site (literature study), lesion: one or several types, types not named, dosed 52 weeks, study length 52 weeks): 15.7 mg/kg/day

O=C(O)CCC(=O)O
TD50 (rat, strain F344/DuCrj, females, in drinking water, site: any site (literature study), lesion: one or several types, types not named, dosed 104 weeks, study length 113 weeks): 4820 mg/kg/day (inactive)
carcinogen call (rat, strain F344/DuCrj, females, in drinking water, site: liver, lesion: one or several types, types not named, dosed 104 weeks, study length 113 weeks): negative (inactive)
carcinogen call (rat, strain F344/DuCrj, males, in drinking water, site: any site (literature study), lesion: one or several types, types not named, dosed 104 weeks, study length 113 weeks): negative (inactive)
carcinogen call (rat, strain F344/DuCrj, males, in drinking water, site: liver, lesion: hepatocellular adenoma, dosed 104 weeks, study length 113 weeks): negative (inactive)
TD50 (rat, strain F344/DuCrj, males, in drinking water, site: liver, lesion: hepatocellular carcinoma, dosed 104 weeks, study length 113 weeks): 54700 mg/kg/day (inactive)

O=NN1CCC(O)C1 (centres undefined)
TD50 (rat, strain Sprague-Dawley, both sexes, in drinking water, site: any site (literature study), lesion: malignant tumor, dosed 112 weeks, study length 112 weeks): 7.65 mg/kg/day
TD50 (rat, strain Sprague-Dawley, both sexes, in drinking water, site: liver, lesion: hepatocellular carcinoma, dosed 112 weeks, study length 112 weeks): 8.11 mg/kg/day
